Test results from ChEMBL document CHEMBL5131544, “Two-Photon Photodynamic Therapy Targeting Cancers with Low Carboxylesterase 2 Activity Guided by Ratiometric Fluorescence” (J Med Chem, 2022).
Active and inactive are the calls of the source. No cut-off for these calls is given here.

Experiments:
[1] = Dark toxicity against human A549 cells assessed as reduction in cell viability after 3 hrs by MTT assay; format: cell-based
PANC-1 [2] = assay: Induction of ROS production in human PANC-1 cells at 20 uM preincubated for 3 hrs followed by compound washout and 900 nm light irradiation by DCFH-DA staining based two-photon fluorescence microscopy analysis; format: functional, cell-based
PANC-1 [3] = assay: Phototoxicity against human PANC-1 cells assessed as reduction in cell viability after 3 hrs followed by compound washout and 415 nm light irradiation measured after overnight incubation by MTT assay; format: functional
PANC-1 [4] = assay: Induction of apoptosis in human PANC-1 cells assessed as caspase 3 cleavage at 20 uM preincubated for 3 hrs followed by compound washout and 415 nm light irradiation for 10 mins and measured after 20 to 1440 mins post irradiation by Western blot analysis; format: functional, cell-based
[5] = Induction of singlet oxygen production assessed as singlet oxygen quantum yield at 20 uM upon 415 nm light irradiation by ABDA assay; format: functional
PANC-1 [6] = assay: Induction of cell death in human PANC-1 cells assessed as reduction in cell viability preincubated for 3 hrs followed by compound washout and immediate 900 nm light irradiation and measured 1 hr post light irradiation by two-photon based MTT assay; format: functional
PANC-1 [7] = assay: Induction of cell death in human PANC-1 cells assessed as […] cleavage at 20 uM after 6 hrs under 900 nm light irradiation by two-photon based Western blotting analysis; format: functional
PANC-1 [8] = assay: Induction of apoptosis in human PANC-1 cells assessed as necrosis at 20 uM preincubated for 3 hrs followed by compound washout and 415 nm light irradiation for 10 mins and measured after 24 hrs post irradiation by Hoeschst-33342/PI staining based assay; format: functional, cell-based
PANC-1 [9] = assay: Induction of apoptosis in human PANC-1 cells at 20 uM preincubated for 3 hrs followed by compound washout and 415 nm light irradiation for 10 mins and measured after 1 hr post irradiation by Annexin V-FITC staining based assay; format: functional, cell-based
A549 = assay: Phototoxicity against human A549 cells assessed as reduction in cell viability after 3 hrs followed by compound washout and 415 nm light irradiation measured after overnight incubation by MTT assay; format: functional
PANC-1 [10] = assay: Induction of apoptosis in human PANC-1 cells assessed as shrinkage of cells at 20 uM preincubated for 3 hrs followed by compound washout and 415 nm light irradiation for 10 mins and measured after 24 hrs post irradiation by Hoeschst-33342/PI staining based assay; format: functional, cell-based
PANC-1 [11] = assay: Induction of cell death in human PANC-1 cells assessed as reduction in cell viability preincubated for 2 hrs followed by compound washout and immediate 900 nm light irradiation and measured 1 hr post light irradiation by two-photon based ReadyProbes blue/green imaging analysis; format: functional
[12] = Dark toxicity against human MCF7 cells assessed as reduction in cell viability after 3 hrs by MTT assay; format: cell-based
[13] = Induction of ROS production in DBPS at pH 7.4 assessed as DCF production at 20 uM upon 415 nm light irradiation by fluorescence spectra analysis; format: functional
[14] = Dark toxicity against human PANC-1 cells assessed as reduction in cell viability after 3 hrs by MTT assay; format: cell-based
PANC-1 [15] = assay: Induction of apoptosis in human PANC-1 cells at 20 uM preincubated for 3 hrs followed by compound washout and 415 nm light irradiation for 10 mins and measured after 20 mins post irradiation by Annexin V-FITC staining based assay; format: functional, cell-based
PANC-1 [16] = assay: Induction of cell morphological changes in human PANC-1 cells at 20 uM preincubated for 2 hrs followed by compound washout and 900 nm light irradiation measured after 1 hr post irradiation by two-photon based bright field imaging analysis; format: functional
[17] = Drug uptake in human PANC-1 cells at 0.5 to 20 uM after 3 hrs under 900 nm light irradiation by two-photon based fluorescence imaging assay; format: ADME, cell-based; settings: panc-1, 3 h, dose 0.5-20 µM
MCF7 [18] = assay: Induction of ROS production in human MCF7 cells at 20 uM incubated for 3 hrs under 415 nm light irradiation by DCFH-DA staining based fluorescence microscopic analysis; format: functional, cell-based
PANC-1 [19] = assay: Induction of ROS production in human PANC-1 cells at 20 uM incubated for 3 hrs under 415 nm light irradiation by DCFH-DA staining based fluorescence microscopic analysis; format: functional, cell-based
MCF7 [20] = assay: Phototoxicity against human MCF7 cells assessed as reduction in cell viability after 3 hrs followed by compound washout and 415 nm light irradiation measured after overnight incubation by MTT assay; format: functional
HepG2 = assay: Phototoxicity against human HepG2 cells assessed as reduction in cell viability after 3 hrs followed by compound washout and 415 nm light irradiation measured after overnight incubation by MTT assay; format: functional; settings: HepG2, light or radiation study
PANC-1 [21] = assay: Antitumor activity against human PANC-1 tumor spheroids at 20 uM preincubated for 3 hrs followed by compound washout and 900 nm light irradiation by two-photon baseReadyProbes blue/green imaging analysis; format: functional, cell-based
[22] = Dark toxicity against human HepG2 cells assessed as reduction in cell viability after 3 hrs by MTT assay; format: cell-based
PANC-1 [23] = assay: Induction of apoptosis in human PANC-1 cells at 20 uM preincubated for 3 hrs followed by compound washout and 415 nm light irradiation for 10 mins and measured after 4 to 24 hrs post irradiation by Annexin V-FITC staining based assay; format: functional, cell-based
PANC-1 [24] = assay: Induction of apoptosis in human PANC-1 cells assessed as membrane decomposition at 20 uM preincubated for 3 hrs followed by compound washout and 415 nm light irradiation for 10 mins and measured after 24 hrs post irradiation by Hoeschst-33342/PI staining based assay; format: functional, cell-based
[25] = PANC-1, light or radiation study

Drug uptake [17]: Active
Compound: O=C(Nc1ccc2c3c(cccc13)C(=O)C=C2)c1ccccc1
CC50 at 3 h [1]: > 32000 nM | Activity (PANC-1 [2]): Active | Activity (PANC-1 [3]; DDE = dose-dependent effect): Dde | CC50 (PANC-1 [3]; [25]): 1400 nM | Activity (PANC-1 [4]): Active | Activity [5]: 0.18 | Activity (PANC-1 [6]; DDE = dose-dependent effect): Dde | CC50 (PANC-1 [6]; [25]): 647 nM | Activity (PANC-1 [7]): Active | Activity (PANC-1 [8]): Active | Activity (PANC-1 [9]): Active | CC50 (A549; A549, light or radiation study): 4400 nM | Activity (A549; DDE = dose-dependent effect): Dde | Activity (PANC-1 [10]): Active | Activity (PANC-1 [11]; DDE = dose-dependent effect): Dde | CC50 (PANC-1 [11]; [25]): 647 nM | CC50 at 3 h [12]: > 32000 nM | Activity [13]: Active | CC50 at 3 h [14]: > 32000 nM | Activity (PANC-1 [15]): Active | Activity (PANC-1 [16]): Active | Activity (MCF7 [18]): Active | Activity (PANC-1 [19]): Active | Activity (MCF7 [20]; DDE = dose-dependent effect): Dde | CC50 (MCF7 [20]; MCF7, light or radiation study): 1600 nM | CC50 (HepG2): > 32000 nM | Activity (PANC-1 [21]): Active | CC50 at 3 h [22]: > 32000 nM | Activity (PANC-1 [23]): Active | Activity (PANC-1 [24]): Active
